The term IC50 denotes the concentration that inhibits the measured activity by half. A high value points to weaker potency in that assay.

Common to all, as to format: cell-based
One test addresses T1, human TLR7 (Homo sapiens, UniProt Q9NYK1).
T1 construct: host or cells: HEK-Blue cells
T1 sequence (Q9NYK1 27-1049): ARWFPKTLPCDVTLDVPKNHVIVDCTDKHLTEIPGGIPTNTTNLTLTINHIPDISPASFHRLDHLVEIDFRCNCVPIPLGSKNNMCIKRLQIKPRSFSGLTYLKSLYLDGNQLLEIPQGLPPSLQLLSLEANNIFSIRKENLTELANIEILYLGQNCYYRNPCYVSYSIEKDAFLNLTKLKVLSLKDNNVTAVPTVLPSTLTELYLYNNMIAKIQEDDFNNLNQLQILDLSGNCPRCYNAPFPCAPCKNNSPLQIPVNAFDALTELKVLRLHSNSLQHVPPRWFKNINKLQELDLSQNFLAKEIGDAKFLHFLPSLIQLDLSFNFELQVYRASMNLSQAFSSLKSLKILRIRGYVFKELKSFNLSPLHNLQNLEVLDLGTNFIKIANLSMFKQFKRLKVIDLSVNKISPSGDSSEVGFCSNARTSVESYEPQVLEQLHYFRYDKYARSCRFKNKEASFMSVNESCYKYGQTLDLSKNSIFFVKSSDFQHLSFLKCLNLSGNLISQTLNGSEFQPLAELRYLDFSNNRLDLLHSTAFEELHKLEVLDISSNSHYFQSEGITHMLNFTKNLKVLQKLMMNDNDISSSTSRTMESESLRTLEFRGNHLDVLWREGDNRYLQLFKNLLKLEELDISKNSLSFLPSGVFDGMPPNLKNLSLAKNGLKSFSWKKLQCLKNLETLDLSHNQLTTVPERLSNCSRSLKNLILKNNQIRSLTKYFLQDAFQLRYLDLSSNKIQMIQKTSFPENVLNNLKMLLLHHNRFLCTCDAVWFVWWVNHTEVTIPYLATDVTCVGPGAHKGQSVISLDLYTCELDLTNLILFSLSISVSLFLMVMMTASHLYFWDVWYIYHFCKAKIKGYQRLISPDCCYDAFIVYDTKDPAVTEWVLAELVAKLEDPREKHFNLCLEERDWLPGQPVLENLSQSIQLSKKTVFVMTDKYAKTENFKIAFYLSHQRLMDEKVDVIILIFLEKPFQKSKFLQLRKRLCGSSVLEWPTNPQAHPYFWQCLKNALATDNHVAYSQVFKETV
In words: TLR7 inhibition reporter assay (HEK-Blue SEAP reporter, gardiquimod stimulation). The conditions noted are these: HEK-Blue cells overexpressing human TLR7, SEAP reporter, gardiquimod 7.5 μM, 22 hour incubation. In short, it runs like this: (§1)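 Compound treatment: 30 min, RT, 0.05 nM–50 μM final. Agonist: TLR7 gardiquimod 7.5 μM; TLR8 R848 15.9 μM; TLR9 ODN2006 5 nM. Incubation 22 h, 37 °C, 5% CO2. Readout SEAP, HEK-Blue Detection.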
A general note: A reporter such as luciferase makes a cellular process visible.

The next test addresses T2, human TLR8 (Homo sapiens, UniProt Q9NR97).
T2 construct: host or cells: HEK-Blue cells
T2 sequence (Q9NR97 27-1041): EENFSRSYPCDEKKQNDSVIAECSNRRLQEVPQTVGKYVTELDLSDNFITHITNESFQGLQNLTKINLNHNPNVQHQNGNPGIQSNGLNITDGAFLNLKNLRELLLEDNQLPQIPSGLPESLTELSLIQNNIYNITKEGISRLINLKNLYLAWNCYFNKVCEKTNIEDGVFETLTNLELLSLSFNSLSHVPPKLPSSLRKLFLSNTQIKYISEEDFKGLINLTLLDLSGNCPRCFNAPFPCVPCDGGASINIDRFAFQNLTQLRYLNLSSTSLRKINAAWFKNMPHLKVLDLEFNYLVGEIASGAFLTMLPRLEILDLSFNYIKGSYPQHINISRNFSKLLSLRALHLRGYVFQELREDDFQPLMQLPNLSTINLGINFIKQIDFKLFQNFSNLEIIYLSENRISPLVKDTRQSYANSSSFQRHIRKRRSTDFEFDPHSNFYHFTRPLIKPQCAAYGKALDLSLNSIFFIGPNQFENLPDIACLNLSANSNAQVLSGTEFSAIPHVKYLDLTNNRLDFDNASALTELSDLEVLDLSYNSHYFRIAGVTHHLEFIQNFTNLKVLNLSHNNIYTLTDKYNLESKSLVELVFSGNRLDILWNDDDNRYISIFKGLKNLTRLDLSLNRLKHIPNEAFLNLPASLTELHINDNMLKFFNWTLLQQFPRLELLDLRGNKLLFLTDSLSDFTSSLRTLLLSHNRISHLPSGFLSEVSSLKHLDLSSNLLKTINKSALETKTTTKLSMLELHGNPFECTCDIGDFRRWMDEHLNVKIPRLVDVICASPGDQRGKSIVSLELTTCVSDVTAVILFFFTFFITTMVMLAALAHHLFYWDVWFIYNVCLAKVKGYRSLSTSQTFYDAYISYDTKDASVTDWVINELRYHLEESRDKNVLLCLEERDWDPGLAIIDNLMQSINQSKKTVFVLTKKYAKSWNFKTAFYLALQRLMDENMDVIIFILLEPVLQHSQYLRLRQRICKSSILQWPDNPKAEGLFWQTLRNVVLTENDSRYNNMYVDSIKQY
In words: TLR8 inhibition reporter assay (HEK-Blue SEAP reporter, R848 stimulation). The conditions noted are these: HEK-Blue cells overexpressing human TLR8, SEAP reporter, R848 15.9 μM, 22 hour incubation. In short, it runs like this: as §1

The next test has as its target T3, human TLR9 (Homo sapiens, UniProt Q9NR96).
T3 construct: host or cells: HEK-Blue cells
T3 sequence (Q9NR96 26-1032): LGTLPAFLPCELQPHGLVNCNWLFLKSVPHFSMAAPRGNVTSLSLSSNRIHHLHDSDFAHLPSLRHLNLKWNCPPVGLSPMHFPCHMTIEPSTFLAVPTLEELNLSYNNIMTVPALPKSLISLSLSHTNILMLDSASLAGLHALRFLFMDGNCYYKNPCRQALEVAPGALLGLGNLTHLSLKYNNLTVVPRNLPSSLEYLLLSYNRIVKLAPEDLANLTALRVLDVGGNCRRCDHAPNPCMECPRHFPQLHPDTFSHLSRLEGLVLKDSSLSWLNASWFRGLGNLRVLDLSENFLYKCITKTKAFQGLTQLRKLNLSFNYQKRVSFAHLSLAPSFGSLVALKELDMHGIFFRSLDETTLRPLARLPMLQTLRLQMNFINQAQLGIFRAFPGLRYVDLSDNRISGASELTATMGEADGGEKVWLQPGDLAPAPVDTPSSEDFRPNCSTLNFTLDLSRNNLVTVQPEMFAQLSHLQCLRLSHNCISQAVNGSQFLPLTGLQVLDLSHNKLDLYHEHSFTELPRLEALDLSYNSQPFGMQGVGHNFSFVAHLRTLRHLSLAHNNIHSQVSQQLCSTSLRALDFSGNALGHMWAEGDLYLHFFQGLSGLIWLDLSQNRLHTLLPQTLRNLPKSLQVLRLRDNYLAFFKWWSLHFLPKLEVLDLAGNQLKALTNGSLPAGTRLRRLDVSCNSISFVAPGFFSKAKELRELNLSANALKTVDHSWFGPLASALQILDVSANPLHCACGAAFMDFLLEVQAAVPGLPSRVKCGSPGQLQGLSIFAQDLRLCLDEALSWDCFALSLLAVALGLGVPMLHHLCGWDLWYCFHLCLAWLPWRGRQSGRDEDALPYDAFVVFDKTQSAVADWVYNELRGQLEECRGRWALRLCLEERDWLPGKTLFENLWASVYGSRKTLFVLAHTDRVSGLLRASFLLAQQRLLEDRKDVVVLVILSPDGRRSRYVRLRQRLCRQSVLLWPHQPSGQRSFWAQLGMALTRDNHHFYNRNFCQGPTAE
In words: TLR9 inhibition reporter assay (HEK-Blue SEAP reporter, ODN2006 stimulation). The conditions noted are these: HEK-Blue cells overexpressing human TLR9, SEAP reporter, ODN2006 5 nM, 22 hour incubation. In short, it runs like this: as §1

Take `Cc1cc(-c2[nH]c3ccc(C4CCN(C(C)(C)C(=O)O)CC4)cc3c2C(C)C)cn(C)c1=O` [Example 148, 2-(4-(2-(1,5-dimethyl-6-oxo-1,6-dihydropyridin-3-yl)-3-isopropyl-1H-indol-5-yl)piperidin-1-yl)-2-methylpropanoic acid]: the IC50 on human TLR7 is 193 nM; on human TLR8, 364 nM; at human TLR9, at least 50000 nM.

On to `Cc1cc(-c2[nH]c3ccc(C4CCN(CC(O)C(C)C)CC4)cc3c2C(C)C)cn(C)c1=O` (stereo not drawn) [Example 324, 5-(5-(1-(2-hydroxy-3-methylbutyl)piperidin-4-yl)-3-isopropyl-1H-indol-2-yl)-1,3-dimethylpyridin-2(1H)-one], for which the figures for the IC50 against human TLR7, on human TLR8 and against human TLR9 were 2.5 nM, 2.8 nM and 11500 nM, respectively.

`Cc1cc(-c2[nH]c3ccc(C4CCN(C(=O)[C@H]5NCC[C@@H]5O)CC4)cc3c2C(C)C)cn(C)c1=O` [Example 291, 5-(5-(1-((2S,3S)-3-hydroxypyrrolidine-2-carbonyl)piperidin-4-yl)-3-isopropyl-1H-indol-2-yl)-1,3-dimethylpyridin-2(1H)-one]: the IC50 against human TLR7 was 12.3 nM; on human TLR8 it was 11.2 nM; against human TLR9, 1420 nM.

With `Cc1c(-c2[nH]c3ccc(C4CCN(CC(C)(C)O)CC4)cc3c2C(C)C)cn(C)c(=O)c1C` [Example 315, 5-(5-(1-(2-hydroxy-2-methylpropyl)piperidin-4-yl)-3-isopropyl-1H-indol-2-yl)-1,3,4-trimethylpyridin-2(1H)-one], the IC50 is 6.7 nM against human TLR7, 1.8 nM against human TLR8 and 4940 nM at human TLR9.

As to `Cc1c(-c2[nH]c3ccc(C4CCN(CCS(C)(=O)=O)CC4)cc3c2C(C)C)cn(C)c(=O)c1Cl` [Example 107, 3-chloro-5-(3-isopropyl-5-(1-(2-(methylsulfonyl)ethyl)piperidin-4-yl)-1H-indol-2-yl)-1,4-dimethylpyridin-2(1H)-one], the IC50 against human TLR7 stood at 6.6 nM; on human TLR8 it was 4.4 nM; against human TLR9, 13400 nM.

For the compound `Cc1cc(-c2[nH]c3ccc(C4CCN(CC(C)(C)O)CC4)cc3c2C(C)C)nn(C)c1=O` [Example 311, 6-(5-(1-(2-hydroxy-2-methylpropyl)piperidin-4-yl)-3-isopropyl-1H-indol-2-yl)-2,4-dimethylpyridazin-3(2H)-one], the figures for the IC50 against human TLR7, at human TLR8 and on human TLR9 were 17.7 nM, 3.9 nM and 3150 nM, respectively.

As for `COCCn1cc(-c2[nH]c3ccc(C4CCN(CC(C)C)CC4)cc3c2C(C)C)cc(C)c1=O` [Example 109, 5-(5-(1-isobutylpiperidin-4-yl)-3-isopropyl-1H-indol-2-yl)-1-(2-methoxyethyl)-3-methylpyridin-2(1H)-one], the IC50 came to 13 nM against human TLR7, 9.7 nM against human TLR8 and 5310 nM at human TLR9.

In the case of `Cc1cc(-c2cc(-c3[nH]c4ccc(C5CCN(C(C)C)CC5)cc4c3C(C)C)cn(C)c2=O)cnc1F` [Example 343, 6′-fluoro-5-(3-isopropyl-5-(1-isopropylpiperidin-4-yl)-1H-indol-2-yl)-1,5′-dimethyl-[3,3′-bipyridin]-2(1H)-one], the IC50 is 18.3 nM at human TLR7, 14.2 nM against human TLR8 and 1170 nM at human TLR9.

For `Cc1nc(-c2[nH]c3ccc(C4CCN(C5CCOC5)CC4)cc3c2C(C)C)cn(C)c1=O` (stereo not drawn) [Example 190, 5-(3-isopropyl-5-(1-(tetrahydrofuran-3-yl)piperidin-4-yl)-1H-indol-2-yl)-1,3-dimethylpyrazin-2(1H)-one], the IC50 against human TLR7 is 25.6 nM; against human TLR8, 53.8 nM; on human TLR9, 2260 nM.

As to `Cc1cc(-c2[nH]c3ccc(C4CCN(C5CCC(F)(F)CC5)CC4)cc3c2C(C)C)cn(C)c1=O` [Example 199, 5-(5-(1-(4,4-difluorocyclohexyl)piperidin-4-yl)-3-isopropyl-1H-indol-2-yl)-1,3-dimethylpyridin-2(1H)-one], the values for the IC50 on human TLR7, against human TLR8 and at human TLR9 were 1.9 nM, 4.2 nM and 1550 nM, respectively.

Consider `Cc1cc(-c2[nH]c3ccc(C4CCN(CC(=O)N5CC[C@H](O)C5)CC4)cc3c2C(C)C)cn(C)c1=O` [Example 119, (S)-5-(5-(1-(2-(3-hydroxypyrrolidin-1-yl)-2-oxoethyl)piperidin-4-yl)-3-isopropyl-1H-indol-2-yl)-1,3-dimethylpyridin-2(1H)-one], for which the IC50 on human TLR7 was found to be 11.4 nM; against human TLR8 it was 14.9 nM; against human TLR9, 1160 nM.

On to `CC(C)c1c(-c2cc(/C=C/C3CC3)c(=O)n(C)c2)[nH]c2ccc(C3CCNCC3)cc12` [Example 52, (E)-3-(2-cyclopropylvinyl)-5-(3-isopropyl-5-(piperidin-4-yl)-1H-indol-2-yl)-1-methylpyridin-2(1H)-one], for which the IC50 came out at 185 nM on human TLR7, 142 nM against human TLR8 and 1520 nM against human TLR9.

The record behind these values is US11447466B2, “Substituted indole compounds useful as inhibitors of TLR7/8/9” (BRISTOL-MYERS SQUIBB COMPANY, priority 2017, dated 2022).
